Experimental data as given in patent US20170044150A1, “IDENTIFICATION OF COMPOUNDS WHICH INHIBIT ATG8-ATG3 PROTEIN-PROTEIN INTERACTION AND THEIR USE AS ANTIPARASITICAL AGENTS” (THE JOHNS HOPKINS UNIVERSITY, priority 2014, published 2017).
Like-named read-outs stand apart in the source and are kept apart here.

Key:
P. falciparum 3D7 = assay: SYBR Green I growth inhibition assay, blood stage; type: cell-based; conditions: Plasmodium falciparum
Method: P. falciparum blood stage culturing. P. falciparum 3D7 and FCR3 cultures were maintained using modified, previously published methods at 37° C., 2% hematocrit of human red blood cells (Science 1976, 193, 673-675). Complete culture media consisted of sterile RPMI 1640 media (Life Technologies), supplemented with 10% human serum, 0.005% hypoxanthine, and buffered with final concentrations of 0.6% HEPES and 0.26% NaHCO3. The FCR3 strain was maintained at 3% CO2 and 5% O2, 92% N2 atmosphere, while the 3D7 strain was maintained at 5% CO2, 5% O2, 90% N2 atmosphere.
SYBR Green I growth inhibition assay. 10 μL of 10× compound diluted in RPMI 1640 media (Gibco) with a constant concentration of 1% DMSO was added to a 96 well plate (Costar), 90 μL of 1.5% ring stage, synchronized with 5% w/v sorbitol P. falciparum 3D7 parasites, 1% hematocrit, in culture media with 10% v/v human serum with 10 μg/mL gentamycin. Each compound concentration and 1% v/v DMSO controls were run in triplicate. Plates were incubated at 37° C. in 5% O2, 5% CO2 and 90% N2 for 72 hours. Plates were frozen, thawed, and incubated with 100-μL 2× SYBR green in lysis buffer (20 mM Tris pH 7.5, 5 mM EDTA, 0.008% Saponin, 0.08% TritonX-100) in the dark for at least one hour. Fluorescence was measured with a plate reader (HTS 7000, Perkin Elmer) at excitation/emission wavelengths of 485/535 nm.
Plasmodium parasite growth inhibition assay. P. falciparum 3D7 parasites were cultured as previously described (J Med Chem 57:4521-4531(2014)). Briefly, the parasites were cultured in 10% v/v human serum with 10 μg/mL gentamycin and synchronized with 5% w/v sorbitol. 1.5% ring stage parasites were added to 96 well plates (Costar) containing serial dilutions, performed in triplicate, of compound in RPMI 1640 media (Gibco). Plates were incubated at 37° C. in 5% O2, 5% CO2, and 90% N2 for 72 h. Plates were frozen, thawed, and incubated with 100 μL 2× SYBR green in lysis buffer (20 mM Tris pH 7.5, 5 mM EDTA, 0.008% Saponin, 0.08% TritonX-100) in the dark for 1 h. Fluorescence was measured with a plate reader (HTS 7000, PerkinElmer) at excitation/emission wavelengths of 485/535 nm.

P. falciparum 3D7-GFP = type: cell-based; conditions: for decrease in the proportion of infected hepatocytes (GFP+/PI- cells): 72 hours post infection
Method: In vitro infection of human hepatocytes with P. falciparum 3D7-GFP. The HC-04 cell line (ATCC, Manassas, Va., USA) was maintained in complete medium (IMDM containing 2.5% FCS, 100 units/ml penicillin, 100 μg/ml streptomycin and 2 mM L-glutamine, all from GIBCO®, Life Technologies, Grand Island, N.Y.). P. falciparum 3D7-GFP parasite strain (PLoS ONE 2010, 5, e9156) was propagated in the Parasitology Core facility, the Johns Hopkins Malaria Research Institute. In vitro infection of human hepatocytes was done as described previously (PLoS ONE 2013, 8, e75321). Briefly, salivary glands were sequestered from infected Anopheles gambiae mosquitoes at day 17 after exposure to infective blood meal and homogenates were separated on an OptiPrep™ Density Gradient (Sigma-Aldrich, St. Louis, Mo.) at 12,000×g for 10 minutes. Sporozoites were collected from the gradient interface, washed in complete medium, counted using a hemocytometer and incubated with HC-04 cells at 3:1 sporozoite to hepatocyte ratio for 2 hours at 37° C. […]
Detection of P. falciparum exoerythrocytic forms in vitro. HC-04 human hepatocyte cell line (ATCC, Manassas, Va., USA) was maintained in complete medium (IMDM containing 2.5% FCS, 100 units/ml penicillin, 100 μg/ml streptomycin and 2 mM L-glutamine, all from GIBCO®, Life Technologies, Grand Island, N.Y.). P. falciparum 3D7HT-GFP parasite strain (PLoS One. 5(2):e9156. doi:10.1371/journal.pone.0009156 (2010)) was propagated in the Parasitology Core facility of the Johns Hopkins Malaria Research Institute. In vitro infection of human hepatocytes, and detection and quantification of P. falciparum 3D7HT-GFP EEFs by flow cytometry were performed as previously described (PLoS One. 8(9):e75321. doi:10.1371/journal.pone.0075321 (2013)).

HC-04 cells = assay: HC-04 hepatocyte viability / cytotoxicity (Annexin-V, PI flow cytometry); type: cell-based, human; conditions: 30 μM
Method: Detection of Annexin-V positive and PI-positive cells in hepatocyte cultures was done by flow cytometry according to the manufacturer's instruction (Invitrogen™, Life Technologies, Grand Island, N.Y., USA).
Hepatocyte cytotoxicity assay. Hepatocyte cytotoxicity assays were carried out in triplicate at two concentrations of inhibitory compounds using HC-04 cells as previously described. Flow cytometry was used to assess two cytotoxicity markers via staining, namely propidium iodine (PI) and Annexin-V.

PfAtg8 = assay: Immunoblot analysis of PfAtg8 in P. falciparum blood stage cultures; type: cell-based; conditions: for lipidation of PfAtg8: 12 hours
Excerpt: Immunoblot analysis of P. falciparum blood stage. […] RBCs were harvested with centrifugation, lysed with 0.2% saponin, and RBC lysate was removed through three 1× PBS washes. Parasites were harvested by centrifugation and washed in 1× PBS with Complete EDTA-free protease inhibitors (Roche) and lysed by repeated vortexing and boiling in SDS reducing sample buffer. […] HRP-conjugated secondary antibodies (Southern Biotech) were detected by SuperSignal West Femto (Thermo Scientific) or Amersham™ ECL™ Prime (GE Healthcare) chemiluminescent substrate. AP-conjugated secondary antibodies (EMD Millipore) were detected using NBT/BCIP (Promega) colorimetric stain. Total protein levels were visualized with ProAct™ Membrane Stain (Amresco) and quantified with ImageJ. Parasite morphology at time of harvesting was visualized with light microscopy at 100× magnification on Olympus BX53 system microscope (Olympus America, Inc.).

P. yoelii liver stage = conditions: screening concentration 10 μM; cited from earlier work
human cell lines = conditions: cited from earlier work
PfAtg8^CM [1] = target: PfAtg8^CM (Plasmodium falciparum, UniProt Q8IJK2); assay: SPR direct binding of compound 1 to immobilized His12-PfAtg8^CM; set-up: other: 2-fold dilution series, highest 75 μM; fused on or other part: N-terminal His12 tag; species or system P. falciparum; conditions: 2-fold dilution series, highest 75 μM
Method: His12-PfAtg8^CM was injected over an NTA-chip (GE Healthcare) preconditioned with nickel, leading to capture of 3,000 response units (RUs). Running buffer contained 3% DMSO. A 2-fold-dilution series of compounds, highest concentration of 75 μM, was injected over PfAtg8 variants at 40 μL/minute.
Determination of the PTA binding site on PfAtg8. The inventors tested whether these compounds bound directly to PfAtg8 using SPR. PfAtg8^CM was immobilized onto an SPR Ni-NTA chip via a twelve histidine N-terminal tag. […] It was then sought to determine the binding site for the PTA compounds with in silico docking.

[2] = target: PfAtg8-PfAtg3 interaction (Plasmodium falciparum, UniProt Q8IJK2); type: binding, P. falciparum
PfAtg8^CM [3] = target: T1, PfAtg8^CM (Plasmodium falciparum, UniProt Q8IJK2); assay: SPR binding of PfAtg8^CM to immobilized compound 8; set-up: species or system P. falciparum
T1 construct: rows headed: KD; other: immobilized compound
T1 sequence (Q8IJK2 1-124 C32I/C119S/C122S): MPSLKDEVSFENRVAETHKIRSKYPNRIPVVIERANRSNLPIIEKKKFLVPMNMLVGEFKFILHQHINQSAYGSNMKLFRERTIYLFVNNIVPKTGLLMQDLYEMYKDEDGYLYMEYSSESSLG
Method: (§1) Direct binding of compound 8 to PfAtg8^CM. Compound 8 was injected over a neutravidin-coated SPR chip (GE Healthcare) on one flowcell, with 130 RUs immobilized, while BACH was injected over a reference flowcell (150 RUs immobilized). His6-PfAtg8^CM, Human LC3, or His6-PfAtg3 was injected in duplicate in running buffer containing 10 mM HEPES pH 7.5, 150 mM NaCl, 0.05% P20. Protein was dissociated from the chip after each cycle with 10 μL injection of 20 mM HEPES pH 7.4, 1% w/v SDS regeneration solution.
(§2) Synthesis of a novel PTA derivative with a functional handle. […] A PTA-benzaldehyde derivative, 4-formyl-N-(4-pyridin-2-yl-1,3-thiazol-2-yl)benzamide (compound 7) was synthesized with a functional handle extending off the common hydrophobic ring system (Table 1, Scheme 1). Compound 7 was prepared from commercially available PTA and 4-formyl benzoic acid through a DCC-promoted amide coupling. Compound 7 can be tethered through a dialkoxyamine linker to a library of aldehydes and screened using our primary SPR competition assay against the PfAtg8-PfAtg3 interaction. In docking studies, compound 7 bound the W- and L-site of PfAtg8 in a fashion similar to compound 2, with the functional handle positioned towards the A-loop pocket (FIG. 7A). A gain in parasite selectivity for such bifunctional analogs is expected as the A-loop is missing in the human Atg8 homologues. […]

hLC3 = target: T2, hLC3 (Homo sapiens, UniProt Q9GZQ8); assay: SPR binding of hLC3 to immobilized compound 8
T2 construct: made in house
Method: as §1, §2

PfAtg3 = target: T3, PfAtg3 (Plasmodium falciparum, UniProt C0H519); assay: SPR binding of PfAtg3 to immobilized compound 8; conditions: data not shown
T3 construct: made in house
T3 sequence (C0H519 1-313): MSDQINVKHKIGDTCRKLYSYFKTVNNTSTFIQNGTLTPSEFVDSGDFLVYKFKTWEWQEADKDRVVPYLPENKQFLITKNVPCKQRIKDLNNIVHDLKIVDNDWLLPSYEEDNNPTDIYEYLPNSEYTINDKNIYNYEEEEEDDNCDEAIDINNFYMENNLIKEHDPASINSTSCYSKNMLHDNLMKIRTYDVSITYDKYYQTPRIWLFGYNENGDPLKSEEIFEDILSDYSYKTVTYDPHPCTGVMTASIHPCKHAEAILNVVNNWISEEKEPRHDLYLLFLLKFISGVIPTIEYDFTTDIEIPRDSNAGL
Method: as §1, §2

[4] = 3D7, no asterisk, read-out: IC50 Blood stage

SMILES | IC50 (P. falciparum 3D7; [4]) [nM] | IC50 (P. falciparum 3D7; 3D7, third experiment, read-out: IC50) [nM] | IC50 (P. falciparum 3D7; 3D7, two of three independent experiments, read-out: IC50) [nM] | IC50 (P. falciparum 3D7; 3D7, two to three experiments, read-out: average IC50) [nM] | intensity of GFP fluorescence (P. falciparum 3D7-GFP; 3 μM and 30 μM, 72 hours) | decrease in the proportion of infected hepatocytes (GFP+/PI- cells) (P. falciparum 3D7-GFP; 3 μM) | decrease in the proportion of infected hepatocytes (GFP+/PI- cells) (P. falciparum 3D7-GFP; 30 μM) [%] | cell death in HC-04 cells (HC-04 cells) | lipidation of PfAtg8 (PfAtg8; 5 μM) | lipidation of PfAtg8 (PfAtg8; 25 μM and 50 μM) | PfAtg8 protein levels (PfAtg8; 50 μM, five hours) | mobility of PfAtg8 (PfAtg8; 50 μM, five hours) | inhibition in P. yoelii liver stage cultures (P. yoelii liver stage) [%] | reported cytotoxicity in human cell lines (human cell lines) | SPR response, direct binding to PfAtg8^CM (PfAtg8^CM [1]) | LEAN (SPR) ([2]; -log (IC50)/number of heavy atoms) | IC50 ([2]; read-out: IC50 SPR, inhibition of PfAtg8-PfAtg3 interaction) [nM] | Kd (PfAtg8^CM [3]) [nM] | Kd (hLC3) [nM] | binding of recombinant PfAtg3 (PfAtg3)
Cc1ccc(Nc2nc(-c3ccccn3)cs2)cc1 [Compound 1, N-(4-methylphenyl)-4-pyridin-2-yl-1,3-thiazol-2-amine] | 1470 | 3300 | 768 | 1610 ± 1470 | dose-dependent reduction | but not 3 μM | ~50 | did not observe cell death | dose-dependent decrease in lipidation | unlipidated PfAtg8 is exclusively detected | drastic increase | shift in mobility, likely corresponding to the unlipidated form of PfAtg8 | ≤ 50 | much lower than that of compounds 2 or 3 | dose-dependent increase in SPR response |  |  |  |  | 
O=C(CCCC[C@H]1SC[C@H]2NC(=O)N[C@H]21)NCCCCCC(=O)NNCc1ccc(C(=O)Nc2nc(-c3ccccn3)cs2)cc1 [Compound 8, 4-[[2-[6-[5-[(3aR,4R,6aS)-2-Oxo-1,3,3a,4,6,6a-hexahydrothieno[3,4-d]imidazol-4-yl]pentanoylamino]hexanoyl]hydrazinyl]methyl]-N-(4-pyridin-2-yl-1,3-thiazol-2-yl)benzamide] | 1480 |  |  |  |  |  |  |  |  |  |  |  |  |  |  | 0.22 | 2660 | 540 | 18000 | did not bind
